Laboratory results: patent US20100303790A1, “USE OF BILIVERDIN REDUCTASE (BVR) AND BVR PEPTIDE FRAGMENTS TO TREAT CORONARY DISORDERS” (UNIVERSITY OF ROCHESTER, priority 2009, published 2010)

Test system: rat neonatal cardiomyocytes
Assay: BVR, HO-2 and HO-1 mRNA in isoproterenol-stimulated cardiomyocytes (RT-PCR)
Format: cell-based
Conditions: 10 μM isoproterenol
Method: Neonatal Rat Cardiomyocytes: Primary cultures of neonatal rat cardiomyocytes were prepared as described previously (Ding et al., “Functional Role of Phosphodiesterase 3 in Cardiomyocyte Apoptosis: Implication in Heart Failure,” Circulation 111:2469-2476 (2005) which is hereby incorporated by reference in its entirety). Briefly, fragmented ventricular tissue from 1-2 day old Sprague-Dawley rats was subjected to multiple rounds of enzymatic digestion with collagenase II (Worthington, Lakewood, N.J.). The cells were then collected by low speed centrifugation at 4° C. Non-myocytes were removed by two rounds of pre-plating the cells on culture dishes. The enriched cardiomyocytes were cultured in DMEM with 10% FBS and 10% horse serum. The day after cell adhesion, 10 μM cytosine 1-β-D-arabinofuranoside (Sigma, St. Louis, Mo.) was added to inhibit the growth of contaminating non-myocytes.
Quantitative RT-PCR: Total RNA was isolated using Trizol reagent (Invitrogen). The first-strand cDNA synthesis and quantitative polymerase chain reaction (RT-PCR) were performed as previously described (Tudor et al., “Biliverdin Reductase is a Transporter of Haem into the Nucleus and is Essential for Regulation of HO-1 Gene Expression by Haematin,” Biochem J 413:405-416 (2008), which is hereby incorporated by reference in its entirety). The following primers were used for PCR analysis: […]
PCR products were resolved by electrophoresis and quantified by image analysis of stained gels.
The question of whether the increased synthesis of each protein required elevated levels of BVR and HO-2 mRNA was investigated by RT-PCR. […] HO-1 protein expression was not detected throughout the whole process of isoproterenol treatment up to 96 hours.

Question: With `CC(C)NCC(O)c1ccc(O)c(O)c1` (stereo not drawn) [isoproterenol] as the molecule, how does the “HO-2 mRNA content” value read?
Answer: remained unchanged

Question: And the “level of BVR mRNA” value?
Answer: increased

Question: And the “level of HO-1 mRNA” value?
Answer: transient increase
